# Results published in patent US20090209633A1, “Treatment of Pain With Resiniferatoxin and Related Analogs” (priority 2006, published 2009).
# Molecular target: T1, native TRPV1 (Rattus norvegicus, UniProt O35433)
# T1 construct: RTX-induced membrane currents on native TRPV1 in embryonic DRG neurons grown in culture; endogenous in cells; host or cells: primary rat E18 DRG neurons
# Test: Single-channel currents in cell-attached patches from DRG neurons
# Format: cell-based
# Parameters: Open time τ4 / Closed time τ1 / Closed time τ2 / Closed time τ3 / Closed time τ4: unit not given here
# Conditions: for single-channel conductance / single-channel current amplitude / Po (single-channel open probability): cell-attached; for single-channel conductance / single-channel current amplitude: RTX, capsaicin 100 nM; for Closed time τ1 / Closed time τ2 / Closed time τ3 / Open time τ1 / Open time τ2 / Open time τ3 / Po (single-channel open probability): RTX 0.1 nM; for Closed time τ1 / Closed time τ2 / Closed time τ3 / Open time τ1 / Open time τ2 / Open time τ3 / Po (single-channel open probability) / Closed time τ4 / Open time τ4: CAP 100 nM; for slope conductance, inward limb / negative potentials: between 0 and −100 mV
# Description: For single-channel recording in cell-attached patches from DRG neurons, the bath solution contained (mM): potassium gluconate 140, KCl 2.5, MgCl2 1, Hepes 5 and EGTA 1.5; pH adjusted to 7.35 with NaOH. The patch pipettes were made from glass capillaries (Drummond, Microcaps), coated with Sylgard (Dow Corning, Midland, Mich., USA). For cell-attached patches, the patch pipettes were filled with a solution that contained (mM): sodium gluconate 140, NaCl 10, MgCl2 1, Hepes 5 and EGTA 1.5; pH adjusted to 7.35 with NaOH. While recording from cell-attached patches, in order to avoid differences in the driving force because of the differences in the membrane potential, the external NaCl was replaced by an equal amount of KCl in order to nullify the membrane potential. For outside-out patches, the pipette solution contained (mM): sodium gluconate 90, NaCl 10, BAPTA 10, Hepes 10, K2ATP2 and GTP 0.25; pH adjusted to 7.35 with NaOH. The bath solution contained (mM): sodium gluconate 100, KCl 2.5, MgCl2 1, Hepes 5 and EGTA 1.5; pH adjusted to 7.35 with NaOH. All the experiments were performed at room temperature (21-23° C.). Agar-bridge electrodes were used to avoid changes in junction potential. The currents were recorded using a WPC 100 (Warner Instruments) or Axopatch 2B (Axon Instruments, Union City, Calif., USA) patch-clamp amplifier. Data were filtered at 10 kHz (Axopatch 2B), digitized (VR-10B, Instrutech Corp.), and stored on videotapes. For the analysis of amplitude and open probability (Po), the data were filtered at 2.5 kHz (−3 db frequency with an 8-pole low-pass Bessel filter, Warner Instruments) and digitized at 5 kHz. For dwell-time analysis, the data were filtered at 10 kHz and digitized at 50 kHz.
# Single-channel analysis. Single-channel current amplitude and Po were estimated from all-point current amplitude histograms (Channel 2 software kindly provided by Michael Smith, Australian National University, Can berra, Australia) and fitted to Gaussian densities (Origin, OriginLab Corp., Northampton, Mass., USA). For current-voltage relationships, the amplitudes were determined by fitting a Gaussian curve to an all-point histogram. Po was determined using unedited segments of data, which were typically 1-5 min long. For multiple channel patches, the mean Po was measured as nPo, where n is the number of channels in the patch. Chord conductance was measured at +60 or −60 mV. […]
# Single-channel currents were idealized using a modified Viterbi algorithm (QUB software, www.qub.buffalo.edu). Dwell-time distributions were fitted with mixtures of exponential densities using a method of maximum likelihood. Additional exponential components were incorporated only if the maximum log likelihood increased more than 2 log likelihood units. (Chung et al. 1990; Qin et al. 1996; Premkumar et al. 1997.) A dead time (Td) of 50 μs was imposed retrospectively, in that, events shorter than 50 μs were considered to be a part of the adjoining sojourns.
# Single-channel conductance. To further evaluate the properties of TRPV1 activation by RTX, we recorded single-channel currents from cell-attached and excised patches from DRG neurons and oocytes heterologously expressing TRPV1. All recordings were carried out in the absence of extracellular calcium to avoid tachyphylaxis and desensitization of channel activity. (Docherty et al. 1996; Caterina et al. 1997; Koplas et al. 1997.) Single-channel current activity in cell-attached patches from DRG neurons were recorded at −60 and +60 mV, as shown in FIG. 3.
# T1 sequence (O35433 whole entry): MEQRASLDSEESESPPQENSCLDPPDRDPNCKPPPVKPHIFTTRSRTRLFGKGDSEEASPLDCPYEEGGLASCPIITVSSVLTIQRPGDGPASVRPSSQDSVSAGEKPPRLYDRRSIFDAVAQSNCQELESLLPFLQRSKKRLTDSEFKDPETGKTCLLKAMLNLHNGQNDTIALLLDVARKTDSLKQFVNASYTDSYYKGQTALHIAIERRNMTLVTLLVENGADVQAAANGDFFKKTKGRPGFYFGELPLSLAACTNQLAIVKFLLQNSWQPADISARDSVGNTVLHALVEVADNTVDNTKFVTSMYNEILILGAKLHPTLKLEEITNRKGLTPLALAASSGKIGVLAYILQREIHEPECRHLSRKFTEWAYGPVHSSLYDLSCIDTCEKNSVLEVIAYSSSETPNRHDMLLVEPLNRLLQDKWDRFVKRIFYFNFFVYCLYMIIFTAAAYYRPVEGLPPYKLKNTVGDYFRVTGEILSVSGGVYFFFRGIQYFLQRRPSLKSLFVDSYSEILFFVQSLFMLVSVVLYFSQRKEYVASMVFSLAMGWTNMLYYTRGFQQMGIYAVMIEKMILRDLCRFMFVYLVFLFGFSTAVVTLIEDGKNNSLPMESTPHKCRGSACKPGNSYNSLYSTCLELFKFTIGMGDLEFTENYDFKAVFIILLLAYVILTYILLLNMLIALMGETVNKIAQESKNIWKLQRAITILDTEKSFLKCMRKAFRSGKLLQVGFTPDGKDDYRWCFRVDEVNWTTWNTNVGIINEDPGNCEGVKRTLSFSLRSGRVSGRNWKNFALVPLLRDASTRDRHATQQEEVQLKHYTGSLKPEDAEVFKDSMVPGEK
compound,measurement,setting,value
"C=C(C)[C@]12C[C@@H](C)[C@@]34O[C@](Cc5ccccc5)(O[C@@H]1[C@@H]3C=C(COC(=O)Cc1ccc(O)c(OC)c1)C[C@]1(O)C(=O)C(C)=C[C@@H]41)O2 [RTX, resiniferatoxin]",mean open time,+60 mV,7.9 ms
same,single-channel conductance,+60 mV,100±2.2 pS
same,single-channel current amplitude,+60 mV,6.02±0.14 pA
same,change of Po with increasing concentration,RTX 0.1 to 20 nM,did not change
same,Closed time τ1,Vm +60 mV,0.1±0.008
same,Closed time τ2,Vm +60 mV,0.46±0.02
same,Closed time τ3,Vm +60 mV,8.7±3.9
same,Open time τ1,Vm +60 mV,1.6 ± 1.2 ms
same,Open time τ2,Vm +60 mV,6.58 ± 0.56 ms
same,Open time τ3,Vm +60 mV,12 ± 1 ms
same,Po (single-channel open probability),Vm +60 mV,0.98±0.02
same,Closed time τ1,Vm −60 mV,0.05±0.007
same,Closed time τ2,Vm −60 mV,0.12±0.005
same,Closed time τ3,Vm −60 mV,1.1±0.26
same,Open time τ1,Vm −60 mV,0.46 ± 0.1 ms
same,Open time τ2,Vm −60 mV,5.57 ± 2.4 ms
same,Open time τ3,Vm −60 mV,10.2 ± 1.8 ms
same,Po (single-channel open probability),Vm −60 mV,0.94±0.02
same,"slope conductance, outward limb / positive potentials",between 0 and +100 mV,126 pS
same,"slope conductance, inward limb / negative potentials",,~30 pS
same,Po of RTX-induced currents,"cell-attached as well as outside-out patches, negative and positive potentials",~0.9
same,reversal potential of single-channel currents,recorded −100 to +100 mV,−2.9 mV
same,concentration that could maximally activate the receptor,single-channel recording,0.1 to 0.2 nM
same,mean open time,−60 mV,7.5 ms
same,single-channel conductance,−60 mV,38.3±3.5 pS
same,single-channel current amplitude,−60 mV,2.3±0.21 pA
COc1cc(CNC(=O)CCCC/C=C/C(C)C)ccc1O [capsaicin],mean open time,+60 mV,3.8 ms
same,single-channel conductance,+60 mV,95±0.1 pS
same,single-channel current amplitude,+60 mV,5.67±0.06 pA
same,Closed time τ4,Vm +60 mV,70.84±47
same,Open time τ4,Vm +60 mV,14.7±2.6
same,Closed time τ4,"Vm +60 mV, listed as CAP",70.84 ± 47
same,Open time τ4,"Vm +60 mV, listed as CAP",14.7 ± 2.6
same,Closed time τ1,Vm +60 mV,0.06±0.02
same,Closed time τ2,Vm +60 mV,0.67±0.39
same,Closed time τ3,Vm +60 mV,1.66±0.39
same,Open time τ1,Vm +60 mV,0.14 ± 0.04 ms
same,Open time τ2,Vm +60 mV,0.7 ± 0.13 ms
same,Open time τ3,Vm +60 mV,3.83 ± 0.62 ms
same,Closed time τ1,"Vm +60 mV, listed as CAP",0.06 ± 0.02
same,Closed time τ2,"Vm +60 mV, listed as CAP",0.67 ± 0.39
same,Closed time τ3,"Vm +60 mV, listed as CAP",1.66 ± 0.39
same,Open time τ1,"Vm +60 mV, listed as CAP",0.14 ± 0.04 ms
same,Open time τ2,"Vm +60 mV, listed as CAP",0.7 ± 0.13 ms
same,Open time τ3,"Vm +60 mV, listed as CAP",3.83 ± 0.62 ms
same,Po (single-channel open probability),Vm +60 mV,0.53±0.04
same,Po (single-channel open probability),"Vm +60 mV, listed as CAP",0.53 ± 0.04
same,Closed time τ4,Vm −60 mV,30.8±12.4
same,Closed time τ4,"Vm −60 mV, listed as CAP",30.8 ± 12.4
same,Closed time τ1,Vm −60 mV,0.13±0.02
same,Closed time τ2,Vm −60 mV,0.79±0.12
same,Closed time τ3,Vm −60 mV,3.47±0.59
same,Open time τ1,Vm −60 mV,0.11 ± 0.01 ms
same,Open time τ2,Vm −60 mV,0.76 ± 0.18 ms
same,Open time τ3,Vm −60 mV,2.61 ± 0.84 ms
same,Closed time τ1,"Vm −60 mV, listed as CAP",0.13 ± 0.02
same,Closed time τ2,"Vm −60 mV, listed as CAP",0.79 ± 0.12
same,Closed time τ3,"Vm −60 mV, listed as CAP",3.47 ± 0.59
same,Open time τ1,"Vm −60 mV, listed as CAP",0.11 ± 0.01 ms
same,Open time τ2,"Vm −60 mV, listed as CAP",0.76 ± 0.18 ms
same,Open time τ3,"Vm −60 mV, listed as CAP",2.61 ± 0.84 ms
same,Po (single-channel open probability),Vm −60 mV,0.1±0.04
same,Po (single-channel open probability),"Vm −60 mV, listed as CAP",0.1 ± 0.04
same,"slope conductance, inward limb / negative potentials",,41 pS
same,conductance level at which currents predominantly dwelled,capsaicin-induced currents,~95 pS
same,mean open time,−60 mV,1.27 ms
same,single-channel conductance,−60 mV,40±1.95 pS
same,single-channel current amplitude,−60 mV,2.4±0.12 pA
